According to patent publication US5573926A, “Process for obtaining aroma components and aromas from their precursors of a glycosidic nature, and aroma components and aromas thereby obtained” (Gist-brocades, N.V., priority 1989, dated 1996):

Legend:
α-arabinosidase = test: Enzymatic hydrolysis of the muscat glycosidic extract by α-arabinosidase (GC); format: biochemical
Experimental: (§1) 40 μl of glycosidic extract and 60 μl of a solution of Glc-pNP (internal standard) at a concentration of 50 mg/1 in ethyl acetate are introduced into a suitable flask. The mixture is taken to dryness at 40° C. with a stream of nitrogen. 40 μl of the silylating reagent (Tri-sil, Pierce, Rockford, Ill., U.S.A.) are then introduced; the flask is sealed and maintained at 40° C. for 20 minutes. After rapid cooling, the silylated sample is then ready for analysis by GC.
(§2) The apparatus used consists of a Series 30C gas chromatograph, an "on-column" injector (injected volume 0.5 μl) and a flame ionization detector (Girdel, France). A thin film (0.20 μm) of an OV-1 (Girdel) apolar silicone phase is grafted onto the inner wall of the capillary column ([…].). The oven temperature is programmed from 125 to 305° C. at the rate of 5° C./minute, then maintained at 305° C. for 15 minutes. Finally, the detector temperature is set at 300° C. and hydrogen is used as the carrier gas at a pressure of 120 kPa.
(§3) The experimental protocols for the enzymatic hydrolysis on the glycosidic extract are collated in Table 3. […]

α-rhamnosidase = test: Enzymatic hydrolysis of the muscat glycosidic extract by α-rhamnosidase (GC); format: biochemical; details: 0.15 nkat, 40° C., 16 h
Experimental: as §1, §2, §3

β-glucosidase [1] = test: Second stage: consecutive action of β-glucosidase on the pre-incubated glycosidic extract (GC); format: biochemical, sweet almond; details: 0.15 nkat, 40°, 16 h
Experimental: as §1, §2, §3

[2] = molecular target: T1, β-glucosidase of Klerzyme 200 (Aspergillus niger, UniProt A2RAL4); test: Hydrolysis of Hemicellulase-pretreated glycosidic extract by Klerzyme 200 (GC); format: biochemical; details: glycosidic extract pretreated with Hemicellulase
T1 sequence (A2RAL4 20-860): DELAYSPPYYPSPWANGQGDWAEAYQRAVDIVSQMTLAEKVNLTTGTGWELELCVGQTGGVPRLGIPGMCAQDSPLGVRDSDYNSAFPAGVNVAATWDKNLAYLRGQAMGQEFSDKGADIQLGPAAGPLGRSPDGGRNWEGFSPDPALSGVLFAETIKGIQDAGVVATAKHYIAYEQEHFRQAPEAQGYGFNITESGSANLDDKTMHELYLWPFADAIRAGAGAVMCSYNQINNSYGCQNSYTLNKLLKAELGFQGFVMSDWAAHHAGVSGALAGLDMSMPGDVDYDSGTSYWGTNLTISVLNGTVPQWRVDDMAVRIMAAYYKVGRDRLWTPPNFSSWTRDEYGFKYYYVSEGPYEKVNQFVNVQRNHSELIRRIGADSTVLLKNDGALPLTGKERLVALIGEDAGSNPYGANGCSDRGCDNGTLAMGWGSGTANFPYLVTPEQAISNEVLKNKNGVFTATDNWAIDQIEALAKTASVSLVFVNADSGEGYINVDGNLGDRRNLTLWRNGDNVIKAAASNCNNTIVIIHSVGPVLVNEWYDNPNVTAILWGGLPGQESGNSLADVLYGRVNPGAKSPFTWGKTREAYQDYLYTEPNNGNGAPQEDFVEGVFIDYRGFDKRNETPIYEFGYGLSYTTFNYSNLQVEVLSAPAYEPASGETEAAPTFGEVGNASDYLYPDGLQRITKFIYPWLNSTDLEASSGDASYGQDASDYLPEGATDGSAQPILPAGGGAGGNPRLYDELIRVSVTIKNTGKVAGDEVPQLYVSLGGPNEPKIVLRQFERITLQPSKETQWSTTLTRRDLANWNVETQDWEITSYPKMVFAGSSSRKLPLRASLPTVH
Description: In another aspect, the action of the β-apiosidase on a glycosidic extract (FIG. 11A) was studied after the action of the Hemicellulase preparation (containing α-rhamnosidase, α-arabinosidase and β-glucosidase activities) on this extract. The Hemicellulase preparation eliminated the rhamnosyl- and arabinosylglucosides (FIG. 11B). Afterwards, the apiosylglucosides remaining were subjected to the hydrolytic action of the β-apiosidase and β-glucosidase of Klerzyme 200 (FIG. 11C). […] This is attributable to the weak affinity of the β-glucosidase of Klerzyme 200, vis-a-vis the linalyl glucosides.

[3] = Vinification of Muscat of Frontignan must with Klerzyme 200, free and bound aroma components by GC
Experimental: After storing for 1.5 months at 20°-22° C., the free and bound aroma component fractions of each sample were extracted on an Amberlite XAD-2 column in 50 ml aliquots, and analyzed via GC.
In another aspect, the action of an enzyme preparation (Klerzyme 200) containing β-apiosidase activity, in addition to α-rhamnosidase, α-arabinosidase and β-glucosidase activity, was studied during the fermentation of dry wines from the Muscat of Frontignan must. Klerzyme 200 (containing (per liter must) 2,770 nkat β-glucosidase, 704 nkat β-apiosidase, 276 nkat α-arabinosidase and 35 nkat α-rhamnosidase) and 10 g/hl of a wine yeast (Saccharomyces cerevisiae, type K1) were added to the must.

β-glucosidase [4] = details: cited from earlier work

C=CC(C)(CCC=C(C)C)O[C@@H]1O[C@H](CO)[C@@H](O)[C@H](O)[C@H]1O (stereo partly drawn) [Glc-Lin, linalyl β-D-glucopyranoside]
Terpene monoglucosides liberated by α-arabinosidase from a glycosidic extract (α-arabinosidase; 0.15 nkat, 40° C., 16 h): 10% | % of monoglucosides (liberated by the two enzymes together) (α-arabinosidase; sum of α-arabinosidase and α-rhamnosidase): 19% | Terpene monoglucosides liberated by α-rhamnosidase from a glycosidic extract (α-rhamnosidase): 9% | hydrolysis by consecutive action of β-glucosidase (second stage, GC) (β-glucosidase [1]; listed as linalyl glucoside): incomplete hydrolysis | hydrolysis by consecutive action of β-glucosidase (second stage, GC) (β-glucosidase [1]; listed as linanyl monoglucoside): reduction | hydrolysis by the β-glucosidase of Klerzyme 200 [2]: not hydrolyzed | hydrolysis by Klerzyme 200 during vinification of dry wine [3]: not hydrolyzed | affinity of the sweet almond β-glucosidase for the substrate (β-glucosidase [4]): low affinity
